Legend:
Assay type in all cases: in vivo
Sinapis alba = assay: Field trial Example 1, successive application: damage on SINAL; conditions: DAT 25/DALT 10
Excerpt: (§1) Aminiopyralid was used as commercial aquaeous solution having an active ingredient concentration of 240 g/l (Milestone™). Metazachlor was used as a commercial suspension concentrate having an active ingredient concentration of 500 g/l (Butisan S®).
(§2) The performance of aminopyralid applied as an alone treatment at 15, 30 and 50 g a.i./ha applied as an early post emergence treatment and an post emergence treatment in comparison to two different applications including metazachlor at 500 g a.i./ha as an early post emergence application in succession of aminopyralid as a post emergence application at 15 and 30 g a.i./ha was assessed in an oilseed rape field trials.
(§3) The early post emergence treatment was applied by means of fine distributed nozzles at the growth stage (GS) of the crop BBCH 11-12.
(§4) The post emergence treatment was applied by means of fine distributed nozzles at the growth stage (GS) of the crop BBCH 13-14.
(§5) The test period extended over the autumn and spring season (205 days).
(§6) In the following experiments, the herbicidal activity for the individual herbicide compounds (solo application) and of the herbicidal succession was assessed 4 times:
(§7) The evaluation for the damage on undesired weeds caused by the chemical compositions was carried out using a scale from 0 to 100%, compared to the untreated control plants. Here, 0 means no damage and 100 means complete destruction of the plants.

Geranium pusillum = assay: Field trial Example 1, successive application: damage on GERPU
Excerpt: as §1, §2, §3, §4, §5, §6, §7

Capsella bursa-pasturis = assay: Greenhouse trial, post-emergence: CAPBP; conditions: aminopyralid 10 g ai/ha solo, post-emergence (Table 10)
Protocol: (§8) The test plants have been seeded, separately for each species, in plastic containers in sandy loamy soil containing 5% organic matter.
(§9) For the post emergence treatment, the plants were first grown to the 2 leaf station (GS 12). Here, the herbicidal compositions were suspended or emulsified in water as distribution medium and sprayed using finely distributing nozzels.
(§10) The plants have been cultivated due to there individual requirements at 10-25° C. and 20-35° C. The plants were irrigated due to there necessity. […]
as §7
(§11) Calculation of expected activity of binary mixtures was done by using the Colby-Formula according to Example 1.

Stellaria media = assay: Field trial Example 2, combined application: STEME; conditions: Aminopyralid 7.5 g ai/ha solo, 28 DAT
Protocol: as §1, §7
(§12) The value E, which is to be expected if the activity of the individual compounds is just additive, was calculated using the method of S. R. Colby (1967) “Calculating synergistic and antagonistic responses of herbicide combinations”, Weeds 15, p. 22 ff.
(§13) The performance of aminopyralid, applied as an alone treatment at […] and 15 g ai/ha, and the performance of metazachlor, applied as an alone treatment at 375 and 500 g ai/ha, as well as the mixtures of the both compounds have been assessed in winter oilseed rape field trials. The trials have been conducted in Germany at two locations.
(§14) Post emergence treatment was applied by means of fine distributed nozzels at the growth stage (GS/BBCH 11/12).

Matricaria chamomilla = assay: Greenhouse trial, post-emergence: MATCH; conditions: read-out: % activity, MATCH
Protocol: as §8, §9
The plants have been cultivated due to there individual requirements at 10-25° C. and 20-35° C. The plants were irrigated due to there necessity.
In the following experiments, the herbicidal activity for the individual herbicide compounds (solo and mixture applications), the herbicidal succession was assessed 14 days after treatment (DAT).
as §7, §11
E=(X+Y+Z)−(X*Y+X*Z+Y*Z/100)+(X*Y*Z/1000)
Tables 6 to 10 relate to the herbicidal activity, in greenhouse trials, of the individual actives and the combination in post-emergence application 14 DAT.

Papaver rhoeas = assay: Greenhouse trial, post-emergence: PAPRH; conditions: aminopyralid 10 g ai/ha solo
Protocol: as §8, §9, §10, §7, §11

Mercurialis annua = assay: Greenhouse trial, post-emergence: MERAN; conditions: for % activity 28 DAT: MERAN
Protocol: as §8, §9, §10, §7, §11

Anthemis arvensis = assay: Field trial Example 2, combined application: ANTAR
Protocol: as §1, §7, §12, §13, §14

oilseed rape = assay: Field trial Example 1, successive application: phytotoxicity (PHYTOX) on oilseed rape crop; conditions: for PHYTOX (damage on the oilseed rape crop): DAT 205/DALT 190
Excerpt: as §1, §2, §3, §4, §5, §6
The evaluation for the damage on the oilseed rape crop, the plant injury or phytotoxicity (PHYTOX) caused by the chemical compositions was carried out using a scale from 0 to 100%, compared to the untreated control plants. Here, 0 means no damage and 100 means high injury of the plants.

[1] = 15 g ai/ha, treatment A early post emergence, DAT 25/DALT 10
[2] = 15 g ai/ha, treatment A early post emergence, DAT 65/DALT 50
[3] = 15 g ai/ha, treatment A early post emergence, DAT 176/DALT 161
[4] = 15 g ai/ha, treatment B post emergence, DAT 25/DALT 10
[5] = 15 g ai/ha, treatment B post emergence, DAT 65/DALT 50
[6] = 15 g ai/ha, treatment B post emergence, DAT 176/DALT 161
[7] = 30 g ai/ha, treatment A early post emergence, DAT 25/DALT 10
[8] = 30 g ai/ha, treatment A early post emergence, DAT 65/DALT 50
[9] = 30 g ai/ha, treatment A early post emergence, DAT 176/DALT 161
[10] = 30 g ai/ha, treatment B post emergence, DAT 25/DALT 10
[11] = 30 g ai/ha, treatment B post emergence, DAT 65/DALT 50
[12] = 30 g ai/ha, treatment B post emergence, DAT 176/DALT 161
[13] = 50 g ai/ha, treatment A early post emergence, DAT 25/DALT 10
[14] = 50 g ai/ha, treatment A early post emergence, DAT 65/DALT 50
[15] = 50 g ai/ha, treatment A early post emergence, DAT 176/DALT 161
[16] = 50 g ai/ha, treatment B post emergence, DAT 25/DALT 10
[17] = 50 g ai/ha, treatment B post emergence, DAT 65/DALT 50
[18] = 50 g ai/ha, treatment B post emergence, DAT 176/DALT 161

Structure (SMILES): Nc1cc(Cl)nc(C(=O)O)c1Cl [aminopyralid, 4-amino-3,6-dichloropyridine-2-carboxylic acid]
- damage on SINAL (Sinapis alba; 15 g ai/ha, treatment A early post emergence): 13%
- damage on SINAL (Sinapis alba; 15 g ai/ha, treatment B post emergence): 0%
- damage on SINAL (Sinapis alba; 30 g ai/ha, treatment A early post emergence): 50%
- damage on SINAL (Sinapis alba; 30 g ai/ha, treatment B post emergence): 0%
- damage on SINAL (Sinapis alba; 50 g ai/ha, treatment A early post emergence): 67%
- damage on SINAL (Sinapis alba; 50 g ai/ha, treatment B post emergence): 0%
- damage on GERPU (Geranium pusillum; [1]): 57%
- damage on GERPU (Geranium pusillum; [2]): 72%
- damage on GERPU (Geranium pusillum; [3]): 78%
- damage on GERPU (Geranium pusillum; [4]): 75%
- damage on GERPU (Geranium pusillum; [5]): 68%
- damage on GERPU (Geranium pusillum; [6]): 75%
- damage on GERPU (Geranium pusillum; [7]): 92%
- damage on GERPU (Geranium pusillum; [8]): 90%
- damage on GERPU (Geranium pusillum; [9]): 95%
- damage on GERPU (Geranium pusillum; [10]): 78%
- damage on GERPU (Geranium pusillum; [11]): 82%
- damage on GERPU (Geranium pusillum; [12]): 93%
- damage on GERPU (Geranium pusillum; [13]): 98%
- damage on GERPU (Geranium pusillum; [14]): 98%
- damage on GERPU (Geranium pusillum; [15]): 97%
- damage on GERPU (Geranium pusillum; [16]): 78%
- damage on GERPU (Geranium pusillum; [17]): 83%
- damage on GERPU (Geranium pusillum; [18]): 97%
- damage on GERPU (Geranium pusillum; aminopyralid 15 g ai/ha, treatment A, DAT 205/DALT 190): 73%
- damage on GERPU (Geranium pusillum; aminopyralid 15 g ai/ha, treatment B, DAT 205/DALT 190): 73%
- damage on GERPU (Geranium pusillum; aminopyralid 30 g ai/ha, treatment A, DAT 205/DALT 190): 99%
- damage on GERPU (Geranium pusillum; aminopyralid 30 g ai/ha, treatment B, DAT 205/DALT 190): 96%
- damage on GERPU (Geranium pusillum; aminopyralid 50 g ai/ha, treatment A, DAT 205/DALT 190): 98%
- damage on GERPU (Geranium pusillum; aminopyralid 50 g ai/ha, treatment B, DAT 205/DALT 190): 98%
- % activity 28 DAT (Capsella bursa-pasturis): 25%
- % activity (Stellaria media): 75%
- inhibition at 5 g/ha (Matricaria chamomilla): 75%
- inhibition at 10 g/ha (Matricaria chamomilla): 85%
- % activity 28 DAT (Papaver rhoeas; post-emergence (Table 10)): 95%
- % activity 28 DAT (Papaver rhoeas; post-emergence (Tables 7-9)): 35%
- % activity 28 DAT (Mercurialis annua; aminopyralid 5 g ai/ha solo, post-emergence (Table 10)): 70%
- % activity 28 DAT (Mercurialis annua; aminopyralid 5 g ai/ha solo, post-emergence (Tables 7-9)): 40%
- % activity 28 DAT (Mercurialis annua; aminopyralid 10 g ai/ha solo, post-emergence (Table 10)): 90%
- % activity 28 DAT (Mercurialis annua; aminopyralid 10 g ai/ha solo, post-emergence (Tables 7-9)): 75%
- inhibition at 10 g/ha (Mercurialis annua; Mercurialis annua, post-emergence, 672 h, read-out: % activity 28 DAT, MERAN): 90%
- % activity (Anthemis arvensis; Aminopyralid 7.5 g ai/ha solo, 29 DAT): 77%
- % activity (Anthemis arvensis; Aminopyralid 15 g ai/ha solo, 29 DAT): 94%
- % activity (Anthemis arvensis; Aminopyralid 15 g ai/ha solo, 78 DAT): 96%
- PHYTOX (damage on oilseed rape crop) (oilseed rape; [1]): 11%
- PHYTOX (damage on oilseed rape crop) (oilseed rape; [2]): 3%
- PHYTOX (damage on oilseed rape crop) (oilseed rape; [3]): 2%
- PHYTOX (damage on oilseed rape crop) (oilseed rape; [4]): 0%
- PHYTOX (damage on oilseed rape crop) (oilseed rape; [5]): 0%
- PHYTOX (damage on oilseed rape crop) (oilseed rape; [6]): 0%
- PHYTOX (damage on oilseed rape crop) (oilseed rape; [7]): 27%
- PHYTOX (damage on oilseed rape crop) (oilseed rape; [8]): 30%
- PHYTOX (damage on oilseed rape crop) (oilseed rape; [9]): 0%
- PHYTOX (damage on oilseed rape crop) (oilseed rape; [10]): 0%
- PHYTOX (damage on oilseed rape crop) (oilseed rape; [11]): 0%
- PHYTOX (damage on oilseed rape crop) (oilseed rape; [12]): 0%
- PHYTOX (damage on oilseed rape crop) (oilseed rape; [13]): 40%
- PHYTOX (damage on oilseed rape crop) (oilseed rape; [14]): 50%
- PHYTOX (damage on oilseed rape crop) (oilseed rape; [15]): 0%
- PHYTOX (damage on oilseed rape crop) (oilseed rape; [16]): 7%
- PHYTOX (damage on oilseed rape crop) (oilseed rape; [17]): 0%
- PHYTOX (damage on oilseed rape crop) (oilseed rape; [18]): 0%
- PHYTOX (damage on the oilseed rape crop) (oilseed rape; aminopyralid 15 g ai/ha, treatment A): 0%
- PHYTOX (damage on the oilseed rape crop) (oilseed rape; aminopyralid 15 g ai/ha, treatment B): 0%
- PHYTOX (damage on the oilseed rape crop) (oilseed rape; aminopyralid 30 g ai/ha, treatment A): 0%
- PHYTOX (damage on the oilseed rape crop) (oilseed rape; aminopyralid 30 g ai/ha, treatment B): 0%
- PHYTOX (damage on the oilseed rape crop) (oilseed rape; aminopyralid 50 g ai/ha, treatment A): 0%
- PHYTOX (damage on the oilseed rape crop) (oilseed rape; aminopyralid 50 g ai/ha, treatment B): 0%
